Assay results reported in US20230116972A1, “CD38 MODULATORS AND METHODS OF USE THEREOF” (Cytokinetics, Inc., priority 2021, published 2023).

Columns and labels:
human CD38 = molecular target: T1, human CD38 (Homo sapiens, UniProt P28907); assay: human recombinant CD38 enzyme assay (hydrolysis of NAD+); type: biochemical; details: human recombinant CD38, 0.4 nM enzyme, 62.5 μM NAD+; read-out: hCD38 BioChem IC50
T1 sequence (P28907 1-300): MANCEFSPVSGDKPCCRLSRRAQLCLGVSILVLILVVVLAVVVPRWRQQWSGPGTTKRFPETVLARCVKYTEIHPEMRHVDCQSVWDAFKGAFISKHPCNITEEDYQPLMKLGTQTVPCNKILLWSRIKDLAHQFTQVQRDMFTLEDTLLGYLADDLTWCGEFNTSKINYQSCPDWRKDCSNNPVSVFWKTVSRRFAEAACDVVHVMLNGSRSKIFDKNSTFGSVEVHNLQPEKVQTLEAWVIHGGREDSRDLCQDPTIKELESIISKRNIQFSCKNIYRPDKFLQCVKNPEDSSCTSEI
How it was run: (§1)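 Inhibitors were titrated against purified CD38 hydrolysing NAD+ for 60 min at ambient temperature. Unconsumed substrate was quantified enzymatically via NADH-coupled resazurin reduction and fluorescence.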

[1] = molecular target: T2, endogenous CD38 in HL60 cells (Homo sapiens, UniProt P28907); assay: cellular CD38 assay in HL60 cells (cellular NAD levels); type: cell-based; details: all-trans retinoic acid, 24 hours, read-out: hCD38 HL60 ATRA NAD Cell Diaphorase IC50
T2 construct: endogenous in cells; host or cells: HL60 (leukemic cells, treated with all-trans retinoic acid)
T2 sequence (P28907 1-300): T1 sequence (P28907 1-300)
How it was run: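 HL60 cells (20000/well) were treated with compound in DMSO for 24 h. Cellular NAD was then measured by an enzymatic cycling mix (alcohol dehydrogenase, diaphorase, 40 uM resazurin, 10 uM FMN, 3% ethanol, Triton X-100, pH 8.4).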

mouse CD38 = molecular target: T3, mouse CD38 (Mus musculus, UniProt P56528); assay: mouse recombinant CD38 enzyme assay (hydrolysis of NAD+); type: biochemical; details: read-out: mCD38 BioChem IC50
T3 sequence (P56528 1-304): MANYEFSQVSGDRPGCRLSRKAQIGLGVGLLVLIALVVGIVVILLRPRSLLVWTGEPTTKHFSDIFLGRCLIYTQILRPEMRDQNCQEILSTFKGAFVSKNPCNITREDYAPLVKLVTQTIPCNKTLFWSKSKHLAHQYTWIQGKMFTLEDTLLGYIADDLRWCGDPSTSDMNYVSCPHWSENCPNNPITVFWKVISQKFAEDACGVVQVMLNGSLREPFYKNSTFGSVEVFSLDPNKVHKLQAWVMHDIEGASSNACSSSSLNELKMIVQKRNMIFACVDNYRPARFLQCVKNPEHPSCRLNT
How it was run: as §1

Row | Structure (SMILES) | IC50 (human CD38) [nM] | IC50 [1] [nM] | IC50 (mouse CD38) [nM]
1 | Cc1cc(C(=O)Nc2ccc(C(F)F)nc2)nc(-c2cncs2)c1 [Compound 132, N-(6-(difluoromethyl)pyridin-3-yl)-4-methyl-6-(thiazol-5-yl)picolinamide] | 115 | 5560 | 55
2 | COCCO[C@H]1CC[C@H](NC(=O)c2nc(C)cc(-c3cncn3C)n2)CC1 [Compound 232, N-((1r,4r)-4-(2-methoxyethoxy)cyclohexyl)-4-methyl-6-(1-methyl-1H-imidazol-5-yl)pyrimidine-2-carboxamide] | 53.7 | 7290 | 8.1
3 | Cn1cncc1-c1nc(C(=O)Nc2ccc(C(F)F)nc2)cc(C2CCC(F)(F)CC2)n1 [Compound 287, 6-(4,4-difluorocyclohexyl)-N-(6-(difluoromethyl)pyridin-3-yl)-2-(1-methyl-1H-imidazol-5-yl)pyrimidine-4-carboxamide] | 3.1 | 882 | 0.7
4 | O=C(N[C@H]1C[C@H](Oc2ccccc2)C1)c1nccc(-n2ccnc2)n1 [Compound 219, 4-(1H-imidazol-1-yl)-N-((1r,3r)-3-phenoxycyclobutyl)pyrimidine-2-carboxamide] | 361 | 10800 | 99
5 | Cn1cncc1-c1ccnc(C(=O)N[C@H]2CC[C@H](C(C)(C)O)CC2)n1 [Compound 254, N-((1r,4r)-4-(2-hydroxypropan-2-yl)cyclohexyl)-4-(1-methyl-1H-imidazol-5-yl)pyrimidine-2-carboxamide] | 93.5 | 3670 | 31.2
6 | COc1cc(C(=O)Nc2ccc(C(F)F)nc2)nc(-n2ccnc2)c1 [Compound 187, N-(6-(difluoromethyl)pyridin-3-yl)-6-(1H-imidazol-1-yl)-4-methoxypicolinamide] | 3.1 | 253 | 1.9
7 | Cn1cncc1-c1nc(C(=O)NC2CC3(C2)CC(F)(F)C3)cc(C(F)(F)F)n1 [Compound 154, N-(6,6-difluorospiro[3.3]heptan-2-yl)-2-(1-methyl-1H-imidazol-5-yl)-6-(trifluoromethyl)pyrimidine-4-carboxamide] | 11 | 3150 | 1
8 | Cn1cncc1-c1ccnc(C(=O)Nc2ccc(OC3CC(F)(F)C3)nc2)n1 [Compound 319] | 3.6 | 964 | 6
9 | O=C(N[C@H]1C[C@H](c2ccnc(C(F)(F)F)c2)C1)c1nccc(-n2ccnc2)n1 [Compound 268, 4-(1H-imidazol-1-yl)-N-((1r,3r)-3-(2-(trifluoromethyl)pyridin-4-yl)cyclobutyl)pyrimidine-2-carboxamide] | 35.4 | 1400 | 96.3
10 | CO[C@H]1CC[C@H](NC(=O)c2cc([C@H]3CC[C@H](OC)CC3)nc(-c3cncn3C)n2)CC1 [Compound 316, N,6-bis((1r,4R)-4-methoxycyclohexyl)-2-(1-methyl-1H-imidazol-5-yl)pyrimidine-4-carboxamide] | 15 | 1470 | 2
11 | O=C(N[C@H]1CC[C@H](C(F)F)CC1)c1cc(C(F)(F)F)nc(-n2ccnc2)n1 [Compound 138, N-((1r,4r)-4-(difluoromethyl)cyclohexyl)-2-(1H-imidazol-1-yl)-6-(trifluoromethyl)pyrimidine-4-carboxamide] | 73 | 3010 | 25
12 | COc1cc(C(=O)N[C@H]2CC[C@H](OC)CC2)nc(-c2cncs2)n1 [Compound 130, 6-methoxy-N-((1r,4r)-4-methoxycyclohexyl)-2-(thiazol-5-yl)pyrimidine-4-carboxamide] | 488 | 10300 | 44
13 | Cn1cncc1-c1cncc(C(=O)N[C@H]2CC[C@H](C(F)F)CC2)n1 [Compound 92, N-((1r,4r)-4-(difluoromethyl)cyclohexyl)-6-(1-methyl-1H-imidazol-5-yl)pyrazine-2-carboxamide] | 22 | 1180 | 13
14 | CO[C@H]1CC[C@H](NC(=O)c2cc(C)nc(-n3ccnc3)n2)CC1 [Compound 118, 2-(1H-imidazol-1-yl)-N-((1r,4r)-4-methoxycyclohexyl)-6-methylpyrimidine-4-carboxamide] | 17 | 1620 | 3
15 | Cn1cncc1-c1nc(C(=O)Nc2ccc(C(F)F)nc2)cc(C(C)(C)O)n1 [Compound 159, N-(6-(difluoromethyl)pyridin-3-yl)-6-(2-hydroxypropan-2-yl)-2-(1-methyl-1H-imidazol-5-yl)pyrimidine-4-carboxamide] | 9 | 1090 | 5
16 | COc1cc(C(=O)Nc2ccc(C(F)F)nc2)nc(-c2cncs2)n1 [Compound 131, N-(6-(difluoromethyl)pyridin-3-yl)-6-methoxy-2-(thiazol-5-yl)pyrimidine-4-carboxamide] | 66 | 2910 | 23
17 | CO[C@@H]1CC[C@@H](NC(=O)c2cccc(-n3ccnc3)n2)C1 [Compound 57, 6-(1H-imidazol-1-yl)-N-(3-methoxycyclopentyl)picolinamide] | 187 | 4550 | 36
18 | O=C(NC1CCCOC1)c1cccc(-n2ccnc2)n1 (stereo not drawn) [Compound 49, 6-(1H-imidazol-1-yl)-N-(tetrahydro-2H-pyran-3-yl)picolinamide] | 88 | 3370 | 29
19 | Cn1cncc1-c1ccnc(C(=O)N[C@H]2CC[C@H](C)CC2)n1 [Compound 149, 4-(1-methyl-1H-imidazol-5-yl)-N-((1r,4r)-4-methylcyclohexyl)pyrimidine-2-carboxamide] | 43 | 1380 | 13
20 | O=C(Nc1ccc(C(F)F)nc1)c1cccc(-n2ccnc2)n1 [Compound 95, N-(6-(difluoromethyl)pyridin-3-yl)-6-(1H-imidazol-1-yl)picolinamide] | 4 | 280 | 6
21 | O=C(Nc1ccccn1)c1cc(-n2ccnc2)ccn1 [Compound 4, 4-(1H-imidazol-1-yl)-N-(pyridin-2-yl)picolinamide] | 1130 | 8510 | 491
22 | COc1cc(C(=O)N[C@H]2CC[C@H](OC)CC2)nc(-n2ccnc2)n1 [Compound 125, 2-(1H-imidazol-1-yl)-6-methoxy-N-((1r,4r)-4-methoxycyclohexyl)pyrimidine-4-carboxamide] | 19 | 2480 | 4
23 | O=C(NC1CCC(F)(F)CC1)c1cccc(-n2ccnc2)n1 [Compound 136, N-(4,4-difluorocyclohexyl)-6-(1H-imidazol-1-yl)picolinamide] | 23 | 1540 | 6
24 | Cn1cncc1-c1ccnc(C(=O)N[C@H]2CC[C@](O)(c3ccccc3)CC2)n1 [Compound 252, N-((1s,4s)-4-hydroxy-4-phenylcyclohexyl)-4-(1-methyl-1H-imidazol-5-yl)pyrimidine-2-carboxamide] | 255 | 4880 | 184
25 | Cn1cncc1-c1nc(C(=O)Nc2ccc(C(F)(F)F)nc2)cc(C2CCC(F)(F)CC2)n1 [Compound 285, 6-(4,4-difluorocyclohexyl)-2-(1-methyl-1H-imidazol-5-yl)-N-(6-(trifluoromethyl)pyridin-3-yl)pyrimidine-4-carboxamide] | 8.6 | 1240 | 1
